Results published in US20170166598A1, “HETEROARYL COMPOUNDS FOR KINASE INHIBITION” (ARIAD PHARMACEUTICALS, INC., priority 2014, published 2017).

Experiments:
Type in all cases: cell-based
[1] = biological target: T1, human EGFR exon 20 insertion ASV (V769_D770insASV) (Homo sapiens, UniProt P00533, INS769ASV); test: Ba/F3-EGFR-Exon20-ASV cell anti-proliferative assay (CellTiter 96 MTS, 72 h); conditions: Ba/F3-EGFR-Exon20-ASV cells
T1 construct: expressed in transfected cells; host or cells: Ba/F3 (murine pro-B) cells transduced with lentivirus from pLVX-IRES puro
T1 sequence (P00533 with tags, fused parts or gaps INS769ASV): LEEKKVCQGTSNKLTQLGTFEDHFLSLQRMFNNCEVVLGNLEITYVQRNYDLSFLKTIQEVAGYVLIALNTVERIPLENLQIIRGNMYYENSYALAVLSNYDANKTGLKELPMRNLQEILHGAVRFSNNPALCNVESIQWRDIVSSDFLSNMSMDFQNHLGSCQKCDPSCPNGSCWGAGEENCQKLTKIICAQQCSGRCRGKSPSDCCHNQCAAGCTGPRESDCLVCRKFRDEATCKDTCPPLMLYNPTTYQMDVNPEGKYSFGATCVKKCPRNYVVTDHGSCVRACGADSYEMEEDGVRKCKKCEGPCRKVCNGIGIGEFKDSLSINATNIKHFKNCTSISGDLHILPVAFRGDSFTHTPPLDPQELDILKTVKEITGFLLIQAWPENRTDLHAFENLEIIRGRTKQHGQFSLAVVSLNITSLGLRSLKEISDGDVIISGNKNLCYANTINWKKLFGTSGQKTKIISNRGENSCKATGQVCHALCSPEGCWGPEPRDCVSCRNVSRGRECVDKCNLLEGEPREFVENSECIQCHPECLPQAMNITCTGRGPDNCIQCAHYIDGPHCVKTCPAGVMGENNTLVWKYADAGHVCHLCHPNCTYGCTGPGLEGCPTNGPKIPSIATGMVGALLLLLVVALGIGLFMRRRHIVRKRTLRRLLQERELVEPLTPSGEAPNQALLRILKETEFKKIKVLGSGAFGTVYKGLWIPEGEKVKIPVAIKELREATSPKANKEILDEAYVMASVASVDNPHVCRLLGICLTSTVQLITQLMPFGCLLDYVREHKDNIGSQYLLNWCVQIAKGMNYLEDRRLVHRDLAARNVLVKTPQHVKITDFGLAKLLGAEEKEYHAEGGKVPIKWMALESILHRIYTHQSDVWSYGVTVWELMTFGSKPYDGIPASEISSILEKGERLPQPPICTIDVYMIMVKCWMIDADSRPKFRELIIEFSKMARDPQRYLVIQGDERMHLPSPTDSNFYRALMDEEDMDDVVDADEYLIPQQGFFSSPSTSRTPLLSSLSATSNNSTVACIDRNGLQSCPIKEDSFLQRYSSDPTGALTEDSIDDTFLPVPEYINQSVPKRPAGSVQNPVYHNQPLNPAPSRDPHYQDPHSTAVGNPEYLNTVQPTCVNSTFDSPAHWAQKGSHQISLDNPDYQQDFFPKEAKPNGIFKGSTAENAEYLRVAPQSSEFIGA
Outline: (§1)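 Viable-cell readout used absorbance at 490 nm of MTS-derived formazan, 2 h after reagent addition, following 72 h compound treatment at 37 °C, 5% CO2. Cells: puromycin-selected, IL-3-depleted Ba/F3 expressing EGFR exon 20 ASV or NPG; dosing 4-fold series from 10,000 nM.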

[2] = biological target: T2, human EGFR exon 20 insertion NPG (H773_V774insNPG) (Homo sapiens, UniProt P00533, INS772GNP); test: Ba/F3-EGFR-Exon20-NPG cell anti-proliferative assay (CellTiter 96 MTS, 72 h); conditions: Ba/F3-EGFR-Exon20-NPG cells
T2 construct: expressed in transfected cells; host or cells: Ba/F3 (murine pro-B) cells transduced with lentivirus from pLVX-IRES puro
T2 sequence (P00533 with tags, fused parts or gaps INS772GNP): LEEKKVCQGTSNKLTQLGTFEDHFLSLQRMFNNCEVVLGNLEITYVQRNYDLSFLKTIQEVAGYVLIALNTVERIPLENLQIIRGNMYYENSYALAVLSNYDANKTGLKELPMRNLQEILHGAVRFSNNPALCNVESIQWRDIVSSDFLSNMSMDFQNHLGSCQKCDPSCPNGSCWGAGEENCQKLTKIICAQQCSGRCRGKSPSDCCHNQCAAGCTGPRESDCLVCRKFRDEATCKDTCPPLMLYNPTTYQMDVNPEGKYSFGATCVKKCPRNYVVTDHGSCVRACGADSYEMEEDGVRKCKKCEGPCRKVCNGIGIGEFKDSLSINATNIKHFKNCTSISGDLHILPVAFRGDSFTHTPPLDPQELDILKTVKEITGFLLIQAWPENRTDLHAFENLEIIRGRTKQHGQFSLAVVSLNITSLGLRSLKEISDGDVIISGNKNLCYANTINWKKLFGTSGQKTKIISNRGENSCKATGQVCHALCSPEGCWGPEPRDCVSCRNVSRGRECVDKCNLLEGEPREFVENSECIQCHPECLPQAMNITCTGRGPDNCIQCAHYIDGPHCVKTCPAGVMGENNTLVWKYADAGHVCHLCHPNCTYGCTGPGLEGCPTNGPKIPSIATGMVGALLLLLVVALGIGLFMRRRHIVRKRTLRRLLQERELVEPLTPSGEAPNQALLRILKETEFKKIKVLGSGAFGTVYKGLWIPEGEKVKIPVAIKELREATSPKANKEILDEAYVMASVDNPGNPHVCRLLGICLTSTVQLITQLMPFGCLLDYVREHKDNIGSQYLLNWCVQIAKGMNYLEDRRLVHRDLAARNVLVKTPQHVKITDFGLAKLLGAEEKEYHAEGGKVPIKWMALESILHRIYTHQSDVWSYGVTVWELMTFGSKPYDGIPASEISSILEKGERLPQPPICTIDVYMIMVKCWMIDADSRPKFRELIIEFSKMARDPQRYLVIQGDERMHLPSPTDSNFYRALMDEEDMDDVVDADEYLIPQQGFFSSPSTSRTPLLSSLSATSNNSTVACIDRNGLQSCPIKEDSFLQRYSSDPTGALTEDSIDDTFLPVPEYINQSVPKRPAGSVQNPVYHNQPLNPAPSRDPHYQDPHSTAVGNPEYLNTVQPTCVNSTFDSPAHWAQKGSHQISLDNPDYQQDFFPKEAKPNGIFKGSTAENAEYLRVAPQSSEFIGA
Outline: as §1

[3] = biological target: T3, human EGFR E746-A750 deletion and T790M Mutation (Homo sapiens, UniProt P00533, DEL746-750/T790M); test: Ba/F3-EGFR-Del/T790M cell anti-proliferative assay (CellTiter 96 MTS, 72 h); conditions: Ba/F3-EGFR-Del/T790M cells
T3 construct: expressed in transfected cells; host or cells: Ba/F3 (murine pro-B) cells transduced with lentivirus from pLVX-IRES puro
T3 sequence (P00533 with tags, fused parts or gaps DEL746-750/T790M): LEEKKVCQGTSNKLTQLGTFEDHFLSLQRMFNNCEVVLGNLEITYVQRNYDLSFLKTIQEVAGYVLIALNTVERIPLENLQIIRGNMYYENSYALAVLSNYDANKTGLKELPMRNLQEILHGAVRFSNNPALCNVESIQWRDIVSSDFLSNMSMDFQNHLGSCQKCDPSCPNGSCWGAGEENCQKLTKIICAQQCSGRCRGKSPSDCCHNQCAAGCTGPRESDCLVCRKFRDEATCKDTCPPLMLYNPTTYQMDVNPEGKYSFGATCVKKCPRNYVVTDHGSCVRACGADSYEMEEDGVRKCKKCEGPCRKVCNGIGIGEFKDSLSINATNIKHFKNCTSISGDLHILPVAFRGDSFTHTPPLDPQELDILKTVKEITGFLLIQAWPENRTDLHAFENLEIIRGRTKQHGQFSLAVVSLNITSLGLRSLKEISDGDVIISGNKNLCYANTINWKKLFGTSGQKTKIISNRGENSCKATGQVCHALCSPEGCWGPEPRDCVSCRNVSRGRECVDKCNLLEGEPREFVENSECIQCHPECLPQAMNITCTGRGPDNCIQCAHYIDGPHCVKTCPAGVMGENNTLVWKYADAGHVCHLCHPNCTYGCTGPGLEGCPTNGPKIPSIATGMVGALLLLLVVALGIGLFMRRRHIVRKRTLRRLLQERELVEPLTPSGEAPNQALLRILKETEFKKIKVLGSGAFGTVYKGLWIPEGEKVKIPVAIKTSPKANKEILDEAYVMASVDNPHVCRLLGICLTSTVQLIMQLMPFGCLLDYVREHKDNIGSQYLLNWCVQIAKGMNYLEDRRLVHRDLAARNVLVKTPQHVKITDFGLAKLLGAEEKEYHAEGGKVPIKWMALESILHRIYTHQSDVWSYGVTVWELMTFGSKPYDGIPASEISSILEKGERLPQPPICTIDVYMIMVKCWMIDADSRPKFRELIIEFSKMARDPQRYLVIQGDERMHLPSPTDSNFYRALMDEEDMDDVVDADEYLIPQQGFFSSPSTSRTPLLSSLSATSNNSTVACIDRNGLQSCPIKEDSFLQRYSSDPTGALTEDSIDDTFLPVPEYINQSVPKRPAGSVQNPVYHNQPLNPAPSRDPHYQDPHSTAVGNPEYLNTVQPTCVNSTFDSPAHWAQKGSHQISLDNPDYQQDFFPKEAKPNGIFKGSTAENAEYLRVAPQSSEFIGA
Outline: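 Compound exposure: 72 h, 37 °C, 4-fold series topping at 10,000 nM. Target cells are Ba/F3 transduced with EGFR exon 19 deletion plus T790M, selected by puromycin and IL-3 withdrawal. Viable cell number inferred from MTS metabolic conversion, A490 read 2 h after reagent addition.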

[4] = biological target: T4, Her2 exon 20 YVMA insertion (A775_G776ins YVMA) (Homo sapiens, UniProt P04626, INS775YVMA); test: Ba/F3-Her2 Exon20 YVMA cell anti-proliferative assay (CellTiter 96 MTS, 72 h); conditions: Ba/F3-Her2 Exon20 YVMA cells
T4 construct: expressed in transfected cells; host or cells: Ba/F3 (murine pro-B) cells transduced with lentivirus from pLVX-IRES puro
T4 sequence (P04626 with tags, fused parts or gaps INS775YVMA): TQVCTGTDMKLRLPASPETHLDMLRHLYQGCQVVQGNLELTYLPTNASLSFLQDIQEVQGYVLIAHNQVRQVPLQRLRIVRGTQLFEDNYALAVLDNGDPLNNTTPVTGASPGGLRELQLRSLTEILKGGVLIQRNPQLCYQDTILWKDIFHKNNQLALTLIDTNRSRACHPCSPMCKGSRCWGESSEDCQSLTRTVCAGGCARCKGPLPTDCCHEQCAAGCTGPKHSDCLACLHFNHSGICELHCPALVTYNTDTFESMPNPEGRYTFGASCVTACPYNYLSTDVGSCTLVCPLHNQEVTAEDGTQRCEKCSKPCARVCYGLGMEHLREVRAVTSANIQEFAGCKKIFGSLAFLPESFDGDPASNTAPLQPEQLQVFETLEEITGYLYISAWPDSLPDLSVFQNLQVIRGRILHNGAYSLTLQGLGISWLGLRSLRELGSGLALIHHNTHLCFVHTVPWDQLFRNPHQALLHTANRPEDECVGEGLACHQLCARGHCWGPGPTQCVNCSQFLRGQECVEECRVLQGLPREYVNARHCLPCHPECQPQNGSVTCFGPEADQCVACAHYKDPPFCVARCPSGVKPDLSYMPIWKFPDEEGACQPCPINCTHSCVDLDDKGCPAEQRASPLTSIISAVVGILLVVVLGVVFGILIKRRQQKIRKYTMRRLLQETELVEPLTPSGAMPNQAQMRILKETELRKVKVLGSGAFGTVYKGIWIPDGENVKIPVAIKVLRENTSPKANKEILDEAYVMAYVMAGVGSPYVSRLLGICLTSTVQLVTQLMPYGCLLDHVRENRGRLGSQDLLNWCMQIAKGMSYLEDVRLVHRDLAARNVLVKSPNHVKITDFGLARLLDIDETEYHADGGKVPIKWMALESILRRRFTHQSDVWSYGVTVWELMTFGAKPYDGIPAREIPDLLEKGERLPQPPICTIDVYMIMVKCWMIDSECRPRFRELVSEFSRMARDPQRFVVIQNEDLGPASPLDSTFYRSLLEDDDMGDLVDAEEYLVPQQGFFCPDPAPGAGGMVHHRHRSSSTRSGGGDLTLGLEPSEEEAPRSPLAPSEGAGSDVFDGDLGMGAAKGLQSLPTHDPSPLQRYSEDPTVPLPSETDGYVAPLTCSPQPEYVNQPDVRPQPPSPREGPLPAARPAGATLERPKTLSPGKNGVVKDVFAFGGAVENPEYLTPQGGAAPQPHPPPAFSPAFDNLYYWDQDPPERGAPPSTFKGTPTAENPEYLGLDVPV
Outline: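 Anti-proliferation: compound series (top 10,000 nM, 4-fold steps) was applied to Ba/F3-Her2 Exon20 YVMA cells grown without IL-3 for 72 h. Viability was read colorimetrically (CellTiter 96 Aqueous One, A490, 2 h reagent incubation).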

| IC50 [1] | IC50 [2] | IC50 [4] | SMILES | EGFR exon 19 deletion and exon 20 T790M mutation IC50 [3] |
| --- | --- | --- | --- | --- |
| < 100 nM | < 100 nM | 100 to 500 nM | C=CC(=O)Nc1cc(Nc2ncc(Cl)c(-c3cn4c5c(cccc35)OCC4)n2)c(OC)cc1N(C)CC1CCCN1C (stereo not drawn) [Example 8, N-(5-((5-chloro-4-(2,3-dihydro-[1,4]oxazino[2,3,4-hi]indol-6-yl)pyrimidin-2-yl)amino)-4-methoxy-2-(methyl((1-methylpyrrolidin-2-yl)methyl)amino)phenyl)acrylamide] | A (IC50 value for the indicated mutant below about 100 nM) |
| < 100 nM | < 100 nM | < 100 nM | C=CC(=O)Nc1cc(Nc2ncc(C#N)c(-c3cn4c5c(cccc35)N(C)C(=O)C4)n2)c(OC)cc1N(C)CCN(C)C [Example 52, N-(5-((5-cyano-4-(1-methyl-2-oxo-2,3-dihydro-1H-pyrrolo[1,2,3-de]quinoxalin-6-yl)pyrimidin-2-yl)amino)-2-((2-(dimethylamino)ethyl)(methyl)amino)-4-methoxyphenyl)acrylamide] | A (IC50 value for the indicated mutant below about 100 nM) |
| 100 to 500 nM | < 100 nM | 100 to 500 nM | C=CC(=O)Nc1cc(Nc2ncc(C#N)c(-c3cn4c5c(cccc35)N(C)C(=O)C4)n2)c(OC)cc1N1CC[C@@H](N(C)C)C1 [Example 55, (R)-N-(5-((5-cyano-4-(1-methyl-2-oxo-2,3-dihydro-1H-pyrrolo[1,2,3-de]quinoxalin-6-yl)pyrimidin-2-yl)amino)-2-(3-(dimethylamino)pyrrolidin-1-yl)-4-methoxyphenyl)acrylamide] | A (IC50 value for the indicated mutant below about 100 nM) |
| < 100 nM | < 100 nM | < 100 nM | C=CC(=O)Nc1cc(Nc2nccc(-c3c(N4CC[C@H](O)C4)n4c5c(cccc35)CCC4)n2)c(OC)cc1N(C)CCN(C)C [Example 75] | A (IC50 value for the indicated mutant below about 100 nM) |
| < 100 nM | < 100 nM | 100 to 500 nM | C=CC(=O)Nc1cc(Nc2ncc(C#N)c(-c3cn4c5c(cccc35)OCC4)n2)c(OC)cc1N1CC[C@@H](N(C)C)C1 [Example 5, (R)-N-(5-((5-cyano-4-(2,3-dihydro-[1,4]oxazino[2,3,4-hi]indol-6-yl)pyrimidin-2-yl)amino)-2-(3-(dimethylamino)pyrrolidin-1-yl)-4-methoxyphenyl)acrylamide] | A (IC50 value for the indicated mutant below about 100 nM) |
| < 100 nM | < 100 nM | < 100 nM | C=CC(=O)Nc1cc(Nc2ncc(-c3ccnn3C)c(-c3cn4c5c(cccc35)CCC4)n2)c(OC)cc1N(C)CCN(C)C [Example 53, N-(5-((4-(5,6-dihydro-4H-pyrrolo[3,2,1-ij]quinolin-1-yl)-5-(1-methyl-1H-pyrazol-5-yl)pyrimidin-2-yl)amino)-2-((2-(dimethylamino)ethyl)(methyl)amino)-4-methoxyphenyl)acrylamide] | A (IC50 value for the indicated mutant below about 100 nM) |
| 100 to 500 nM | < 100 nM | 100 to 500 nM | C=CC(=O)Nc1cc(Nc2ncc(C#N)c(-c3cn4c5c(cccc35)OCC4)n2)c(OC)cc1N1CC(N(C)C)C1 [Example 6, N-(5-((5-cyano-4-(2,3-dihydro-[1,4]oxazino[2,3,4-hi]indol-6-yl)pyrimidin-2-yl)amino)-2-(3-(dimethylamino)azetidin-1-yl)-4-methoxyphenyl)acrylamide] | A (IC50 value for the indicated mutant below about 100 nM) |
| < 100 nM | < 100 nM | 100 to 500 nM | C=CC(=O)Nc1cc(Nc2ncc(N(C)CCO)c(-c3cn4c5c(cccc35)CCC4)n2)c(OC)cc1N(C)CCN(C)C [Example 60, N-(5-((4-(5,6-dihydro-4H-pyrrolo[3,2,1-ij]quinolin-1-yl)-5-((2-hydroxyethyl)(methyl)amino)pyrimidin-2-yl)amino)-2-((2-(dimethylamino)ethyl)-(methyl)amino)-4-methoxyphenyl)acrylamide] | A (IC50 value for the indicated mutant below about 100 nM) |
| < 100 nM | < 100 nM | 100 to 500 nM | C=CC(=O)Nc1cc(Nc2ncc(OCC(C)O)c(-c3cn4c5c(cccc35)CCC4)n2)c(OC)cc1N(C)CCN(C)C (stereo not drawn) [Example 51, N-(5-((4-(5,6-dihydro-4H-pyrrolo[3,2,1-ij]quinolin-1-yl)-5-(2-hydroxypropoxy)pyrimidin-2-yl)amino)-2-((2-(dimethylamino)ethyl)(methyl)amino)-4-methoxyphenyl)acrylamide] | A (IC50 value for the indicated mutant below about 100 nM) |
| 100 to 500 nM | < 100 nM | 100 to 500 nM | C=CC(=O)Nc1cc(Nc2ncc(C(=O)NC)c(-c3cn4c5c(cccc35)CCC4)n2)c(OC)cc1N(C)CCN(C)C [Example 54, 2-((5-acrylamido-4-((2-(dimethylamino)ethyl)(methyl)amino)-2-methoxyphenyl)amino)-4-(5,6-dihydro-4H-pyrrolo[3,2,1-ij]quinolin-1-yl)-N-methylpyrimidine-5-carboxamide] | A (IC50 value for the indicated mutant below about 100 nM) |
| < 100 nM | < 100 nM | < 100 nM | C=CC(=O)Nc1cc(Nc2ncc(C(=O)OC)c(-c3cn4c5c(cccc35)CCC4)n2)c(OC)cc1N(C)CC1CCCN1C (stereo not drawn) [Example 89] | A (IC50 value for the indicated mutant below about 100 nM) |
| 100 to 500 nM | < 100 nM | > 1000 nM | C=CC(=O)Nc1cc(Nc2nccc(-c3c(-c4ncnn4C)n4c5c(cccc35)CCC4)n2)c(OC)cc1N(C)CCN(C)C [Example 110] | A (IC50 value for the indicated mutant below about 100 nM) |
| < 100 nM | < 100 nM | < 100 nM | C=CC(=O)Nc1cc(Nc2ncc(/C=C\C#N)c(-c3cn4c5c(cccc35)CCC4)n2)c(OC)cc1N(C)CCN(C)C [Example 43, (Z)-N-(5-((5-(2-cyanovinyl)-4-(5,6-dihydro-4H-pyrrolo[3,2,1-ij]quinolin-1-yl)pyrimidin-2-yl)amino)-2-((2-(dimethylamino)ethyl)(methyl)amino)-4-methoxyphenyl)acrylamide] | A (IC50 value for the indicated mutant below about 100 nM) |
| < 100 nM | < 100 nM | 100 to 500 nM | C=CC(=O)Nc1cc(Nc2ncc(C#N)c(-c3cn4c5c(cccc35)CCC4)n2)c(OC)cc1N1CC[C@H](N(C)C)C1 [Example 16, (S)-N-(5-((5-cyano-4-(5,6-dihydro-4H-pyrrolo[3,2,1-ij]quinolin-1-yl)pyrimidin-2-yl)amino)-2-(3-(dimethylamino)pyrrolidin-1-yl)-4-methoxyphenyl)acrylamide] | A (IC50 value for the indicated mutant below about 100 nM) |
| < 100 nM | < 100 nM | 100 to 500 nM | C=CC(=O)Nc1cc(Nc2nccc(-c3c(N4CCC(F)C4)n4c5c(cccc35)CCC4)n2)c(OC)cc1N(C)CCN(C)C (stereo not drawn) [Example 92] | A (IC50 value for the indicated mutant below about 100 nM) |
